Here are results for seven molecules from patent publication US9586956B2, “Isoquinoline and naphthyridine derivatives” (Genentech, Inc., priority 2012, dated 2017).

Assay [1] addresses T1, purified human MAP4K4 kinase domain (Homo sapiens, UniProt O95819).
T1 construct: purified human MAP4K4 kinase domain
Kind of assay: MAP4K4 Inhibition Assay Protocol No. 1 (Caliper LabChip, moesin-derived peptide phosphorylation). It counts as biochemical. Conditions: Assay 1; 1 nM enzyme, 10 uM ATP, 45 min. The method in brief:
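1 nM enzyme with 1 uM 5-carboxyfluorescein-labelled moesin peptide and 10 uM ATP in 50 mM Hepes pH 7.2, 10 mM MgCl2, 2% DMSO, 45 min at room temperature, then EDTA stop. Phosphorylated fraction of peptide measured by microfluidic mobility shift; IC50 from four-parameter fit.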

Assay [2] addresses T1, purified human MAP4K4 kinase domain. Kind of assay: MAP4K4 Inhibition Assay Protocol No. 2 (Z'-LYTE FRET). The format is biochemical. Particulars: Assay 2; 1 nM enzyme, 10 uM ATP, 60 min. The source says:
The kinase activity of purified human MAP4K4 kinase domain was monitored using Z'-LYTE™ technology from Invitrogen to determine inhibition constants (IC50) of small molecule inhibitors. The Z'-LYTE™ biochemical assay employs a fluorescence-based, coupled-enzyme format and is based on the differential sensitivity of phosphorylated and non-phosphorylated peptides to proteolytic cleavage. In the primary reaction, the kinase transfers the gamma-phosphate of ATP to a single tyrosine, serine or threonine residue in a synthetic FRET-peptide. In the secondary reaction, a site-specific protease recognizes and cleaves non-phosphorylated FRET-peptides. Phosphorylation of FRET-peptides suppresses cleavage by the Development Reagent. Cleavage disrupts FRET between the donor (i.e., coumarin) and acceptor (i.e., fluorescein) fluorophores on the FRET-peptide, whereas uncleaved, phosphorylated FRET-peptides maintain FRET. To determine inhibition constants (IC50), compounds were serially diluted in DMSO and added to 10 uL kinase reactions containing 1 nM purified MAP4K4 enzyme, 2 uM ser/thr7 Z'-LYTE™ substrate, 10 uMATP, 50 mM Hepes (pH 7.5), 10 mM MgCl2, 1 mM EGTA, 0.01% Brij-35, and 2% DMSO. Reactions were incubated at room temperature in Corning Black 384 well plates (Corning#3573) for 60 minutes and stopped by the addition of 5 uL of Z'-LYTE™ development reagent A and incubated at room temp for 60 minutes. The plate is then analyzed on Perkin Elmer Envision by FRET mode. The high ratio of coumarin/fluorescein represents 0% phosphorylation rate while low ratio of coumarin/fluorescein represents 100% phosphorylation rate. The following equations are used to determine extent of peptide phosphorylation or inhibition: […]

T1 sequence (O95819 25-289 limits assumed): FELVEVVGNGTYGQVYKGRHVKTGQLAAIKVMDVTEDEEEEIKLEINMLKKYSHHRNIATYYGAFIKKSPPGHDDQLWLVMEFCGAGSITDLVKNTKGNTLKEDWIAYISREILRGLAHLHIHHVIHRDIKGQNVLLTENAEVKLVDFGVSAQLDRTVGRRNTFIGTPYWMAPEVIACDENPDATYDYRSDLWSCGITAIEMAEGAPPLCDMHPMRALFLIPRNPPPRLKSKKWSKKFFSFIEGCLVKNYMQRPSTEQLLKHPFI

Regarding `CCNC(=O)N1CC(NC(=O)c2cnc(N)c3cc(-c4cccc(F)c4)ccc23)C1` [Example 131, 1-amino-N-[1-(ethylcarbamoyl)azetidin-3-yl]-7-(3-fluorophenyl) isoquinoline-4-carboxamide], the IC50 in assay [1] was determined as 0.168 µM; in assay [2], 0.174 µM.

With `Nc1ncc(C(=O)N[C@H]2C[C@H](O)C2)c2ccc(-c3cccc(F)c3)nc12` [Example 14b, 8-amino-2-(3-fluorophenyl)-N-(trans-3-hydroxycyclobutyl)-1,7-naphthyridine-5-carboxamide], the IC50 in assay [1] amounted to 0.00419 µM; in assay [2] it was 0.0044 µM.

As for `CCOC(=O)c1cnc(N)c2nc(-c3cccc(F)c3)ccc12` [Example 118, ethyl 8-amino-2-(3-fluorophenyl)-1,7-naphthyridine-5-carboxylate], the IC50 in assay [1] stood at 0.000464 µM; in assay [2], 0.000648 µM.

On to `Nc1ncc(C(=O)NC2CN(C(=O)NC3CC3)C2)c2ccc(-c3cccc(F)c3)cc12` [Example 132, 1-amino-N-[1-(cyclopropyl-carbamoyl)azetidin-3-yl]-7-(3-fluorophenyl)isoquinoline-4-carboxamide], for which the results for the IC50 in assay [1] and in assay [2] were 0.18 µM and 0.191 µM, respectively.

As to `Nc1ncc(CNC(=O)C2CC2)c2ccc(-c3cccc(F)c3)cc12` [Example 6, N-[[1-amino-7-(3-fluorophenyl)-4-isoquinolyl]methyl]cyclopropanecarboxamide], the IC50 in assay [1] worked out at 0.0414 µM; in assay [2], 0.0294 µM.

For the molecule `CN1CC(NC(=O)c2cnc(N)c3cc(-c4cccc(F)c4)ccc23)C1` [Example 7, 1-amino-7-(3-fluorophenyl)-N-(1-methylazetidin-3-yl)isoquinoline-4-carboxamide], the IC50 was 0.869 µM in assay [1] and 0.776 µM in assay [2].

For `Nc1ncc(C(=O)NC(CO)CNC(=O)NC2CC2)c2ccc(-c3cccc(F)c3)cc12` (centres unmarked) [Example 130, 1-amino-N-[1-[(cyclopropyl-carbamoylamino)methyl]-2-hydroxy-ethyl]-7-(3-fluorophenyl) isoquinoline-4-carboxamide], the IC50 was found to be 0.0609 µM in assay [1] and 0.0665 µM in assay [2].

The term IC50 denotes the concentration that inhibits the measured activity by half. A higher IC50 goes with weaker potency in that assay.
